# Assay results published in ChEMBL document CHEMBL3804823, “Inhibitors of secreted phospholipase A2 suppress the release of PGE2 in renal mesangial cells” (Bioorg Med Chem, 2016).
# Calls of active or inactive are those of the source. The calls are words filed in the database; no cut-off is given here.
# Assays:
# Format in all cases: cell-based
# [1] = species: Rattus norvegicus; assay: Inhibition of secretory phospholipase A2 in rat renal mesangial cells assessed as suppression of IL-1beta/forskolin stimulated PGE2 formation preincubated for 20 mins prior to IL-1beta/forskolin challenge at 1 uM measured after 24 hrs by PGE2-specific ELISA
# [2] = species: Rattus norvegicus; assay: Inhibition of secretory phospholipase A2 in rat renal mesangial cells assessed as suppression of IL-1beta/forskolin stimulated PGE2 formation preincubated for 20 mins prior to IL-1beta/forskolin challenge at 3 and 10 uM measured after 24 hrs by PGE2-specific ELISA
# [3] = species: Rattus norvegicus; assay: Inhibition of secretory phospholipase A2 in rat renal mesangial cells assessed as suppression of IL-1beta/forskolin stimulated PGE2 formation preincubated for 20 mins prior to IL-1beta/forskolin challenge at 1 to 10 uM measured after 24 hrs by PGE2-specific ELISA
# [4] = species: Rattus norvegicus; assay: Inhibition of secretory phospholipase A2 in rat renal mesangial cells assessed as suppression of IL-1beta/forskolin stimulated PGE2 formation preincubated for 20 mins prior to IL-1beta/forskolin challenge at 10 uM measured after 24 hrs by PGE2-specific ELISA
compound,measurement,setting,value
CC(C)[C@H](NC(=O)C(=O)c1ccc2ccccc2c1)C(=O)O,inhibition,[1],inactive
same,inhibition,[2],Active
CCCC[C@H](CCC(=O)O)NC(=O)CCCC(=O)NCc1ccccc1,inhibition,[3],Active
O=C(CCCCc1ccccc1)C(F)(F)C(F)(F)F,inhibition,[4],inactive
O=C(O)CC[C@@H](Cc1ccc(OCc2ccccc2)cc1)NC(=O)CCCCCCc1ccccc1,inhibition,[3],Active
CCCCCCCCCCCCCCC(=O)C(=O)NCCCC(=O)OCC,inhibition,[4],inactive
CC(C)[C@H](NC(=O)C(=O)CCCCc1ccccc1)C(=O)O,inhibition,[3],Active
CCCCCCCCCCCCCCCCC(=O)C(=O)N[C@H](C(=O)O)C(C)C,inhibition,[3],Active
CCCC[C@H](CCC(=O)O)NC(=O)CCCCNC(=O)c1ccccc1,inhibition,[1],inactive
same,inhibition,[2],Active
CCCC[C@H](CCC(=O)O)NC(=O)CCCCC(=O)Nc1ccccc1,inhibition,[1],inactive
same,inhibition,[2],Active
CCCC[C@H](CCC(=O)O)NC(=O)CCCCCCc1ccccc1,inhibition,[3],Active
CCCCCCCCCCCCCCC(=O)C(=O)N[C@@H](CC(C)C)C(=O)O,inhibition,[3],Active
CC(C)[C@H](NC(=O)C(=O)CCCCc1ccc2ccccc2c1)C(=O)O,inhibition,[3],Active
CCCC[C@H](CCC(=O)O)NC(=O)CCCCNC(=O)c1ccc(OC)cc1,inhibition,[3],Active
CCCCCCCCCCCCCCC(=O)C(=O)N[C@@H](CCCC)CCCC(=O)O,inhibition,[4],inactive
CCCC[C@H](CCC(=O)O)NC(=O)CCCCCOc1ccccc1,inhibition,[1],inactive
same,inhibition,[2],Active
